Reference: US20210085711A1 (Japan Tobacco Inc., priority 2017, published 2021)

Experiments:
[1] = tested on: patients with hypermenorrhea and/or patients with hypermenorrhea-associated gynecologic diseases (iron-deficiency anemia patients); test: Phase II clinical trial of JTT-751: total iron-binding capacity (TIBC); assay type: in vivo, human
Experimental: This test was a three-stage safety and efficacy clinical trial at multi-facilities. The first stage was a pre-observation period (Day −40 to Day −1), the second stage was an administration period (Day 1 to Day 48) (efficacy and safety evaluation period), and the third stage was a post-observation period (Day 49 to Day 63) (efficacy and safety evaluation period). The safety evaluation and efficacy evaluation were performed by multi-facility collaboration, placebo control, random allocation, double-blind trial, and parallel group comparison test.
(1) Japanese patients who are 20 or more and less than 65 years old at the time of agreement and can visit an outpatient clinic (2) Patients who have an Hb value (measured using HemoCue® Hb 201 DM analyzer in the institute of clinical practice) of 7.0 g/dL or more and less than 11.0 g/dL on both the observation start date and Week 0, and the difference between the two days is 1.0 g/dL or less (3) Patients with a TIBC of 360 μg/dL or more or a serum ferritin value of less than 12 ng/mL on the observation start date
The administration period of the trial drug is seven weeks which starts from the next day of the Week 0 visit to the day before the Week 7 visit, provided that the trial drug is not taken on the scheduled Week 3 visit.
(2) Subsidiary evaluation items 1) Erythrocyte-related examination values and amount of change from Week 0 at each observation date 2) Iron-related test values and amount of change from Week 0 at each observation date 3) Achievement rate of target Hb value (female; 12.0 g/dL or more, male; 13.0 g/dL or more) at each observation date 4) Achievement rate of 1.0 g/dL or more and achievement rate of 2.0 g/dL or more in Hb value improvement from Week 0 at each observation date 5) Average daily change of Hb value from Week 0 to each observation date
The blood hemoglobin value (Hb), the serum iron level, the serum ferritin value, the total iron-binding capacity (TIBC) and the transferrin saturation rate (TSAT), and the mean corpuscular volume (MCV) were each examined at the observation start date, Week 0, Week 3, Week 7, the end of administration and the consultation at nine weeks after Week 0; the hepcidin concentration (Hepcidin 25) and the serum soluble transferrin receptor concentration (sTfR) were each examined on Week 0, Week 3 and Week 7 and at the end of administration; and the C-terminal FGF23 value (cFGF23) and the intact FGF23 value (iFGF23) were each examined on Week 0 and Week 7 and at the end of administration.

[2] = tested on: patients with hypermenorrhea-associated gynecologic diseases; test: Phase II clinical trial of JTT-751: safety evaluation (harmful events) in combined use with medicaments affecting the amount of menstrual bleeding; assay type: in vivo, human; conditions: combined with carbazochrome sodium sulfonate, transamin or ethynylestradiol combinations
Experimental: This test was a three-stage safety and efficacy clinical trial at multi-facilities. The first stage was a pre-observation period (Day −40 to Day −1), the second stage was an administration period (Day 1 to Day 48) (efficacy and safety evaluation period), and the third stage was a post-observation period (Day 49 to Day 63) (efficacy and safety evaluation period). The safety evaluation and efficacy evaluation were performed by multi-facility collaboration, placebo control, random allocation, double-blind trial, and parallel group comparison test. […]
(1) Regarding the subjective symptoms and objective findings, when “expression of new abnormality” was observed between the start of the trial drug administration and nine weeks after Week 0 or at the end of examination after discontinuation as compared to before the start of the trial drug administration. […] (3) Regarding clinical examination, vital sign and standard 12-induced electrocardiogram, when the principal investigator or subinvestigator determined that an abnormality newly recognized between the start of the trial drug administration and nine weeks after Week 0 or at the end of examination after discontinuation, or aggravation of abnormality observed from before the start of the trial drug administration was a clinical problem. […]

[3] = 250 mg/day, 9 weeks after Week 0
[4] = 250 mg/day, End of administration
[5] = 500 mg/day, 9 weeks after Week 0
[6] = 500 mg/day, End of administration
[7] = 1000 mg/day, 9 weeks after Week 0
[8] = 1000 mg/day, End of administration
[9] = 1500 mg/day, 9 weeks after Week 0
[10] = 1500 mg/day, End of administration

## Ferric citrate [JTT-751]
[1]; [3]
  TIBC, profile from the baseline (value at Week 0), Mean: -42.8 µg/dL
  TIBC, profile from the baseline (value at Week 0), Median: -39.0 µg/dL
[1]; [4]
  TIBC, profile from the baseline (value at Week 0), Mean: -60.1 µg/dL
  TIBC, profile from the baseline (value at Week 0), Median: -62.0 µg/dL
[1]; 250 mg/day, Week 3
  TIBC, profile from the baseline (value at Week 0), Mean: -28.3 µg/dL
  TIBC, profile from the baseline (value at Week 0), Median: -24.0 µg/dL
[1]; 250 mg/day, Week 7
  TIBC, profile from the baseline (value at Week 0), Mean: -60.1 µg/dL
  TIBC, profile from the baseline (value at Week 0), Median: -62.0 µg/dL
[1]; [5]
  TIBC, profile from the baseline (value at Week 0), Mean: -49.6 µg/dL
  TIBC, profile from the baseline (value at Week 0), Median: -49.0 µg/dL
[1]; [6]
  TIBC, profile from the baseline (value at Week 0), Mean: -61.7 µg/dL
  TIBC, profile from the baseline (value at Week 0), Median: -49.5 µg/dL
[1]; 500 mg/day, Week 3
  TIBC, profile from the baseline (value at Week 0), Mean: -30.9 µg/dL
  TIBC, profile from the baseline (value at Week 0), Median: -28.5 µg/dL
[1]; 500 mg/day, Week 7
  TIBC, profile from the baseline (value at Week 0), Mean: -61.7 µg/dL
  TIBC, profile from the baseline (value at Week 0), Median: -49.5 µg/dL
[1]; [7]
  TIBC, profile from the baseline (value at Week 0), Mean: -68.7 µg/dL
  TIBC, profile from the baseline (value at Week 0), Median: -75.0 µg/dL
[1]; [8]
  TIBC, profile from the baseline (value at Week 0), Mean: -80.4 µg/dL
  TIBC, profile from the baseline (value at Week 0), Median: -70.0 µg/dL
[1]; 1000 mg/day, Week 3
  TIBC, profile from the baseline (value at Week 0), Mean: -54.1 µg/dL
  TIBC, profile from the baseline (value at Week 0), Median: -54.0 µg/dL
[1]; 1000 mg/day, Week 7
  TIBC, profile from the baseline (value at Week 0), Mean: -80.4 µg/dL
  TIBC, profile from the baseline (value at Week 0), Median: -70.0 µg/dL
[1]; [9]
  TIBC, profile from the baseline (value at Week 0), Mean: -63.0 µg/dL
  TIBC, profile from the baseline (value at Week 0), Median: -68.5 µg/dL
[1]; [10]
  TIBC, profile from the baseline (value at Week 0), Mean: -79.7 µg/dL
  TIBC, profile from the baseline (value at Week 0), Median: -84.0 µg/dL
[1]; 1500 mg/day, Week 3
  TIBC, profile from the baseline (value at Week 0), Mean: -60.7 µg/dL
  TIBC, profile from the baseline (value at Week 0), Median: -70.0 µg/dL
[1]; 1500 mg/day, Week 7
  TIBC, profile from the baseline (value at Week 0), Mean: -79.7 µg/dL
  TIBC, profile from the baseline (value at Week 0), Median: -84.0 µg/dL
[1]; Week 0, Week 3 and Week 7
  total iron-binding capacity (TIBC), time-dependent change: decreased along with the continuous administration
[2]
  harmful event caused by combined use with medicaments affecting the amount of menstrual bleeding: no harmful event caused by the combined use was reported
